From ChEMBL document CHEMBL1143305, “SAR and biological evaluation of analogues of a small molecule histone deacetylase inhibitor N-(2-aminophenyl)-4-((4-(pyridin-3-yl)pyrimidin-2-ylamino)methyl)benzamide (MGCD0103)” (Bioorg Med Chem Lett, 2009)
Converted amounts (≈) assume the structure as drawn. The source made the active and inactive calls. The calls are words filed in the database; no cut-off is given here.

What was measured:
[1] = Volume of distribution at steady state in Sprague-Dawley rat at 2.5 mg/kg, iv up to 6 hrs; assay type: ADME, organism-based; design: dose 2.5 mg/kg, route intravenous; settings: in vivo, read-out: Vdss
[2] = Metabolic stability in human microsomes assessed as biotransformation rate; assay type: ADME, Microsome
[3] = Metabolic stability in mouse microsomes assessed as biotransformation rate; assay type: ADME, Microsome
[4] = Metabolic stability in rat microsomes assessed as biotransformation rate; assay type: ADME, Microsome
[5] = Solubility at pH 1.2; assay type: physicochemical; settings: buffer
[6] = Solubility at pH 6.8; assay type: physicochemical; settings: buffer
HCT-15 [7] = experiment: Antitumor activity against human HCT15 cells xenografted in mouse at 5 mg/kg, po administered once daily for 12 days relative to control; assay type: functional
HCT-15 [8] = experiment: Antitumor activity against human HCT15 cells xenografted in mouse at 10 mg/kg, po administered once daily for 12 days relative to control; assay type: functional
[9] = Antitumor activity against human AZ-521 cells xenografted in mouse at 5 mg/kg, po administered once daily for 12 days relative to control; assay type: functional
[10] = Antitumor activity against human AZ-521 cells xenografted in mouse at 10 mg/kg, po administered once daily for 12 days relative to control; assay type: functional
NCI-H460 = experiment: Antitumor activity against human H460 cells xenografted in mouse at 20 mg/kg, po administered once daily for 12 days relative to control; assay type: functional
Mus musculus [11] = experiment: Toxicity in mouse xenografted with human HCT15 cells at 5 to 20 mg/kg, po administered once daily for 12 days; assay type: organism-based, HCT-15; design: dose 5-20 mg/kg, route oral; settings: in vivo, 288 h
Mus musculus [12] = experiment: Toxicity in mouse xenografted with human H460 cells at 5 to 20 mg/kg, po administered once daily for 12 days; assay type: organism-based; design: dose 5-20 mg/kg, route oral; settings: in vivo, 288 h
HMEC = experiment: Selectivity ratio of IC50 for HMEC to IC50 for human HCT116 cells
HCT-116 = experiment: Induction of p21WAF1/CIP1 expression in human HCT116 cells assessed as […] after 16 hrs by luciferase assay; assay type: functional, cell-based
[13] = target: T1, Protein deacetylase HDAC6 (Homo sapiens, UniProt Q9UBN7); experiment: Inhibition of HDAC6
T1 sequence (Q9UBN7 whole entry): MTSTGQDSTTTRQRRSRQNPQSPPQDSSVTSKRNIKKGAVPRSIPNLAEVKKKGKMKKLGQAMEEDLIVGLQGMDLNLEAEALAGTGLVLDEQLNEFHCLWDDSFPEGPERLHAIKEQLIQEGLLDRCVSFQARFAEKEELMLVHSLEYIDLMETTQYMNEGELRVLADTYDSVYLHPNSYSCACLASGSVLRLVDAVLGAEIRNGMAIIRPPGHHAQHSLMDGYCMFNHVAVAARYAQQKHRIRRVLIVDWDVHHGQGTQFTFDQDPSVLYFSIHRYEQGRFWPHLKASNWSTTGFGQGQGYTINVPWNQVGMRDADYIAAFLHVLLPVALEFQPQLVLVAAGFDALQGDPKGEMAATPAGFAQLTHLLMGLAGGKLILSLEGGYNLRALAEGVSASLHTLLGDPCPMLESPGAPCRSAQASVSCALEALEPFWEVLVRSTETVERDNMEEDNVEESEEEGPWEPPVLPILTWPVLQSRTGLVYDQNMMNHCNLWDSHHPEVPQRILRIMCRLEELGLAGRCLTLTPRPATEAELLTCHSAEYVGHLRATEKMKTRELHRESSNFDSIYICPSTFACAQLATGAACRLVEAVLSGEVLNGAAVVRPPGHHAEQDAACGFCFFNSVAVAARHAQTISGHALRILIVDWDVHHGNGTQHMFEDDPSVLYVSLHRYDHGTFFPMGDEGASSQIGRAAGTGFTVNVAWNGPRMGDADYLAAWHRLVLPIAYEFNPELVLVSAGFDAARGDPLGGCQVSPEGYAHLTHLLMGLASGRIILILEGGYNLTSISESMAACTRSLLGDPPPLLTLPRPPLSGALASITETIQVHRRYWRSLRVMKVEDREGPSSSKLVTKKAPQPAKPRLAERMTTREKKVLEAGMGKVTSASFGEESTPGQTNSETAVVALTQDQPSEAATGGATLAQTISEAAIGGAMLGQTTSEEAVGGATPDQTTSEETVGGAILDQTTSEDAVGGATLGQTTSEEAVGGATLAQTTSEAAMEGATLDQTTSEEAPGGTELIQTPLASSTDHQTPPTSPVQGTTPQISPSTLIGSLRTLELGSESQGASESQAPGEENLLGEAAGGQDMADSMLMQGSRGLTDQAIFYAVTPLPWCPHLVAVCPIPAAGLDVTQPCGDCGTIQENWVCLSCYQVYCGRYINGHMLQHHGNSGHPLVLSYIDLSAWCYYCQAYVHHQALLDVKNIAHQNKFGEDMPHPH

Histone deacetylase 8 = target: T2, Histone deacetylase 8 (Homo sapiens, UniProt Q9BY41); experiment: Inhibition of HDAC8
T2 sequence (Q9BY41 whole entry): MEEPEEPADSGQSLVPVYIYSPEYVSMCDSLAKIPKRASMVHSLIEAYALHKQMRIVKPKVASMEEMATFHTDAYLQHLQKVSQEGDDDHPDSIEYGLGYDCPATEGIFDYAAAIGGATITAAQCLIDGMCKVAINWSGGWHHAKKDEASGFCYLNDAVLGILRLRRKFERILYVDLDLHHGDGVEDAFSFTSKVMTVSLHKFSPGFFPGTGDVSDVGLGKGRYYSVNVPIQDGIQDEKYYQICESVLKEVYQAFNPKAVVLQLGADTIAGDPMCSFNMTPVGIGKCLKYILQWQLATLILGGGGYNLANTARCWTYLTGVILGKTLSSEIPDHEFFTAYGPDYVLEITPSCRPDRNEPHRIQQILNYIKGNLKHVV

Histone deacetylase 2 = Histone deacetylase 2 (Homo sapiens, UniProt Q92769)
Sequence of Histone deacetylase 2 (Q92769 whole entry): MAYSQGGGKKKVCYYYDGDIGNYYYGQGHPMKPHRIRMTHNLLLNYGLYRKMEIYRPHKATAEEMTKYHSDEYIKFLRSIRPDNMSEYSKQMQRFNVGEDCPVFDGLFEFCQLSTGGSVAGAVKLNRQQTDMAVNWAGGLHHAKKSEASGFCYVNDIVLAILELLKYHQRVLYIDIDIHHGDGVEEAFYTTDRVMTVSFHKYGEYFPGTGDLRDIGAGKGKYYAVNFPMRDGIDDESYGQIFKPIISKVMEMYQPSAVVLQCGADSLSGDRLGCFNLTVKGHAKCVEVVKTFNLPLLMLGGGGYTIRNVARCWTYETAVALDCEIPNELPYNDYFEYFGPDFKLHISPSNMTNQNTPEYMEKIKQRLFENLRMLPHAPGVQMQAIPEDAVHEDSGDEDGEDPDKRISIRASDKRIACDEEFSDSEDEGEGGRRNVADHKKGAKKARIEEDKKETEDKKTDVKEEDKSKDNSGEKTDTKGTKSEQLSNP

## Nc1ccccc1NC(=O)c1ccc(CNc2nccc(-c3ccn[nH]3)n2)cc1
[1]
  Vd: 0.13 L/kg
[2]
  Activity: 0.01 nmol/mg/min
[3]
  Activity: 0.054 nmol/mg/min
[4]
  Activity: 0.043 nmol/mg/min
[5]
  solubility: > 1000 µg/mL
[6]
  solubility: 77 µg/mL (≈ 200 µM)
HCT-15 [7]
  T/C: 79%
HCT-15 [8]
  T/C: 63%
[9]
  T/C: 43%
[10]
  T/C: 53%
NCI-H460
  T/C: 34%
Mus musculus [11]
  Activity: Non-toxic
Mus musculus [12]
  Activity: Non-toxic
HMEC
  Ratio IC50: >30
HCT-116
  Activity: inactive
[13]
  IC50: > 20 µM
Histone deacetylase 8
  IC50: > 10 µM
Histone deacetylase 2
  IC50: 0.14 µM
